Results from patent publication US5756471A, “Use of a sophorolipid to provide free radical formation inhibiting activity or elastase inhibiting activity” (Institut Francais du Petrole, priority 1994, dated 1998).

Experiments:
[1] = Anti-radical activity (EPR method); settings: hydroxyl radical EPR signal
Procedure: The anti-radical effect of crude and acid sophorolipids was evaluated with respect to a free radical derived from oxygen and which is particularly important in pathology, namely the hydroxyl radical. Electron paramagnetic resonance spectrometry (EPR) was used. A molecule which traps free radicals reduces the signal. EPR measurements were carried out using a Brucker ECS106 spectrometer at ambient temperature. The hydroxyl radical (OH^.) was produced by photolysis (UVB) of hydrogen peroxide in aqueous solution. Mannitol was used as a reference molecule (positive control).

human fibroblasts = assay: Anti-radical effect on human fibroblasts (UVA); settings: 200 μg/ml, in the absence of UVA
elastase = assay: Anti-elastasic activity on human skin section
Excerpt: The elastin substrate was that which exists in human skin.
That result was expected and acted to validate the test.

pancreatic elastase = pancreatic elastase (Sus scrofa, UniProt P00772); assay: Anti-elastasic activity, test in semi-solid medium (elastin in gelose); format: biochemical; settings: 10 mM
Chain of pancreatic elastase (P00772 27-266): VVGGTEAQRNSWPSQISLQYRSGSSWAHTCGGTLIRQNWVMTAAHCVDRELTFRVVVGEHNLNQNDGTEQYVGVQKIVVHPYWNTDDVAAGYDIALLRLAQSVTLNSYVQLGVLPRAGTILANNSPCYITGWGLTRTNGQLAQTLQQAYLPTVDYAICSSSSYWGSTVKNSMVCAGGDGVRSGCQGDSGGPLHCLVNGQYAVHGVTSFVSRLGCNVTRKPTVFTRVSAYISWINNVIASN
Procedure: Principle: Inhibition of the degradation of elastin contained in gelose by elastase
The anti-elastase activity of acid sophorolipids was evaluated using a semi-quantitative technique. The enzymatic solution, associated or otherwise with the test compound or with the reference molecule, was deposited in hollows in gelose containing the substrate, elastin.
The enzyme diffused into the gelose and digested the elastin.
This phenomenon was shown as a lightening of the gelose in the digestion zone, which zone was measured.

Question: With `OC[C@@H](O)[C@@H](O)[C@H](O)[C@H](O)CO` [Mannitol] as the compound, how does the trapping activity ([1]; 10 mM) read?
Answer: 98%

Question: And the “% anti-radical protection” value ([1]; 0.182% (w/v))?
Answer: 98%

Question: With `CC(=O)Oc1c(C)c(C)c2c(c1C)CCC(C)(CCC[C@H](C)CCC[C@H](C)CCCC(C)C)O2` (some centres unmarked) [Acetate of vitamin E, acetate of vitamin E] as the compound, how does the toxicity for cells (human fibroblasts) read?
Answer: not toxic

Question: What does the source list for `[Cl][Hg][Cl]` [HgCl2, mercury chloride]?
Answer: Degradation of elastin fibres (elastase; 0.125 % (w/v)): None; inhibition of elastase activity (elastase; reference molecule): dose-dependent manner; enzymatic inhibition (pancreatic elastase): total; Diameter of digestion zone (pancreatic elastase; 6 hours incubation): 0 cm; Diameter of digestion zone (pancreatic elastase; 21 hours incubation): 0 cm
